Assay results taken from US7402585B2, “Substituted quinazoline derivatives as inhibitors of aurora kinases” (AstraZeneca AB, priority 2001, dated 2008).

Columns and labels:
SW620 cells = test: In vitro cell proliferation assay (BrdU incorporation); type: cell-based; conditions: SW-620; SW620 human tumour cell line, 48 hours with compound, 2 hour BrdU labelling; read-out: concentration active (50% inhibition of BrdU incorporation)
Description: (c) In Vitro Cell Proliferation Assay
This and other assays can be used to determine the ability of a test compound to inhibit the growth of adherent mammalian cell lines, for example the human tumour cell line SW620 (ATCC CCL-227). This assay determines the ability of at test compound to inhibit the incorporation of the thymidine analogue, 5′-bromo-2′-deoxy-uridine (BrdU) into cellular DNA. SW620 or other adherent cells were typically seeded at 1×10^5 cells per well in L-15 media (GIBCO) plus 5% foetal calf serum, 1% L-glutamine (100 μl/well) in 96 well tissue culture treated 96 well plates (Costar) and allowed to adhere overnight. […] The optical density of the wells was then determined at 690 nm wavelength using a Titertek Multiscan plate reader. […]

Aurora-A kinase = target: T1, Aurora-A kinase (Homo sapiens, UniProt O14965); test: In vitro Aurora-A kinase inhibition test; type: biochemical
T1 construct: 6His (with spacer region and rTEV protease cleavage site from pFastBac HTc) (N); made in house; host or cells: Spodoptera frugiperda Sf21 insect cells (baculovirus, pFastBac HTc)
T1 sequence (O14965 1-403): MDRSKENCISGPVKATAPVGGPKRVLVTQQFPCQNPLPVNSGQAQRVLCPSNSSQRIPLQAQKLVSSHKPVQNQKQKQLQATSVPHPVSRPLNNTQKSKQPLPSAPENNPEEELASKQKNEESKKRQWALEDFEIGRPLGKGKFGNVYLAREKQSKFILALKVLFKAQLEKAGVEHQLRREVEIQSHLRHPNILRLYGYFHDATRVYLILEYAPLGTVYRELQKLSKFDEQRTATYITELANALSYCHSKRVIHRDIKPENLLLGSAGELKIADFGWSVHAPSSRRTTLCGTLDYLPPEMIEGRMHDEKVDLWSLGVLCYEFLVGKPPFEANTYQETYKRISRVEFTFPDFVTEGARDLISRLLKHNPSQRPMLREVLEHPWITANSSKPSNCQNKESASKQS

COc1cc2c(Nc3cc(CC(=O)Nc4cccc(F)c4)[nH]n3)ncnc2cc1OCCCN1CCC[C@H]1CO [Compound 8, N-(3-fluorophenyl)-2-{3-[(7-{3-[(2S)-2-(hydroxymethyl)pyrrolidin-1-yl]propoxy}-6-methoxyquinazolin-4-yl)amino]-1H-pyrazol-5-yl}acetamide]
IC50 (SW620 cells): 86 nM
IC50 (Aurora-A kinase): 10 nM

COc1cc2c(Nc3cc(CC(=O)Nc4cccc(F)c4)[nH]n3)ncnc2cc1OCCCN(C)CCO [Compound 13, N-(3-fluorophenyl)-2-{3-[(7-{3-[(2-hydroxyethyl)(methyl)amino]propoxy}-6-methoxyquinazolin-4-yl)amino]-1H-pyrazol-5-yl}acetamide]
IC50 (SW620 cells): 79 nM
IC50 (Aurora-A kinase): 1 nM
